Converted amounts (≈) assume the structure as drawn.

Holding throughout (assay type): cell-based
Experiment [1] relates to Gram negative or Gram positive bacteria. The experiment is described as follows: Antibacterial test (MIC), comparison bacteria summarised in text. Particulars: text summary over the comparison bacteria. As to the method: (§1) ATCC43504 which was a standard bacterial strain was used as Helicobacter pylori (H. pylori) to perform the test in vitro in a Columbia agar medium. The bacteria were cultured at 37° C. and a pH of 7.0 for three days. The minimum inhibitory concentration (MIC, μg/ml) was found on the fourth day. Each sample was dissolved in 1% DMSO to use. As control drugs for the antibacterial agent, ampicillin (AMPC), clarithromycin (CAM), and gentamycin (GEM) were used. As bacteria for comparison, Gram negative bacteria, for example, E. coli (ATCC 10536 ATCC 25922), Klebsiella pneumonia (ATCC 10031), Proteus vulgaris (ATCC 13315), Pseudomonas aeruginosa (ATCC 9027) and Salmonella typhimurium (ATCC 13311) were used and Gram positive bacteria, for example, Staphylococcus aureus, MRSA (ATCC 33591), Staphylococcus epidermidis (ATCC 12228), Streptococcus pneumonia (ATCC 6301), Mycobacterium ranae (ATCC 110) and Enterococcus faecalis (VRE, ATCC 51575) were used.
(§2) The values in each table show minimum inhibitory concentrations (MIC, μg/ml).

Experiment [2] has as its system Helicobacter pylori (ATCC 43504). The experiment is described as follows: Antibacterial test (MIC) against Helicobacter pylori. The settings on record: for minimum inhibitory concentration (MIC): Helicobacter pylori ATCC 43504; for minimum inhibitory concentration (MIC) / MIC: Columbia agar medium, 37° C., pH 7.0, cultured three days, MIC found on the fourth day; for MIC: Helicobacter pylori, ATCC43504, 72 h, pH 7, Helicobacter pylori ATCC 43504, read-out: minimum inhibitory concentration (MIC). As to the method:
as §1, with “As control drugs for the antibacterial agent, ampicillin (AMPC), clarithromycin (CAM), and gentamycin (GEM) were used.” left out
as §2

The subject of experiment [3] is Pseudomonas aeruginosa (ATCC 9027). Description: Antibacterial test (MIC), comparison bacteria. Particulars: for minimum inhibitory concentration (MIC): Gram negative; for MIC: ATCC9027, Gram negative, read-out: minimum inhibitory concentration (MIC). Here is the method: as §1, with “As control drugs for the antibacterial agent, ampicillin (AMPC), clarithromycin (CAM), and gentamycin (GEM) were used.” left out
as §2

The subject of experiment [4] is Staphylococcus epidermidis (ATCC 12228). Description: Antibacterial test (MIC), comparison bacteria. The settings on record: for minimum inhibitory concentration (MIC): Gram positive; for MIC: ATCC12228, Gram positive, read-out: minimum inhibitory concentration (MIC). As to the method:
as §1, with “As control drugs for the antibacterial agent, ampicillin (AMPC), clarithromycin (CAM), and gentamycin (GEM) were used.” left out
as §2

The test system of experiment [5] is Streptococcus pneumonia (ATCC 6301). The experiment is described as follows: Antibacterial test (MIC), comparison bacteria. The settings on record: for minimum inhibitory concentration (MIC): Gram positive; for MIC: Streptococcus pneumoniae, ATCC6301, Gram positive, read-out: minimum inhibitory concentration (MIC). As to the method:
as §1, with “As control drugs for the antibacterial agent, ampicillin (AMPC), clarithromycin (CAM), and gentamycin (GEM) were used.” left out
as §2

In experiment [6] the test system is Klebsiella pneumonia (ATCC 10031). Description: Antibacterial test (MIC), comparison bacteria. Particulars: for minimum inhibitory concentration (MIC): Gram negative; for MIC: Klebsiella pneumoniae, ATCC10031, Gram negative, read-out: minimum inhibitory concentration (MIC). As to the method: as §1, with “As control drugs for the antibacterial agent, ampicillin (AMPC), clarithromycin (CAM), and gentamycin (GEM) were used.” left out
as §2

Experiment [7] has as its system Escherichia coli (ATCC 25922). Description: Antibacterial test (MIC), comparison bacteria. Particulars: for minimum inhibitory concentration (MIC): Gram negative; for MIC: ATCC25922, Gram negative, read-out: minimum inhibitory concentration (MIC). As to the method: as §1, with “As control drugs for the antibacterial agent, ampicillin (AMPC), clarithromycin (CAM), and gentamycin (GEM) were used.” left out
as §2

Experiment [8] relates to Proteus vulgaris (ATCC 13315). The experiment is described as follows: Antibacterial test (MIC), comparison bacteria. The settings on record: for minimum inhibitory concentration (MIC): Gram negative; for MIC: ATCC13315, Gram negative, read-out: minimum inhibitory concentration (MIC). As to the method:
as §1, with “As control drugs for the antibacterial agent, ampicillin (AMPC), clarithromycin (CAM), and gentamycin (GEM) were used.” left out
as §2

Experiment [9] has as its system Staphylococcus aureus (MRSA, ATCC 33591). Description: Antibacterial test (MIC), comparison bacteria. The settings on record: Gram positive; for MIC: read-out: minimum inhibitory concentration (MIC). Here is the method:
as §1, with “As control drugs for the antibacterial agent, ampicillin (AMPC), clarithromycin (CAM), and gentamycin (GEM) were used.” left out
as §2

Experiment [10] deals with Salmonella typhimurium (ATCC 13311). Description: Antibacterial test (MIC), comparison bacteria. Particulars: Gram negative; for MIC: Salmonella enterica, read-out: minimum inhibitory concentration (MIC). As to the method:
as §1, with “As control drugs for the antibacterial agent, ampicillin (AMPC), clarithromycin (CAM), and gentamycin (GEM) were used.” left out
as §2

For experiment [11], the system named is Enterococcus faecalis (VRE, ATCC 51575). The experiment is described as follows: Antibacterial test (MIC), comparison bacteria. Particulars: Gram positive; for MIC: read-out: minimum inhibitory concentration (MIC). As to the method: as §1, with “As control drugs for the antibacterial agent, ampicillin (AMPC), clarithromycin (CAM), and gentamycin (GEM) were used.” left out
as §2

The test system of experiment [12] is Escherichia coli (ATCC 10536). Description: Antibacterial test (MIC), comparison bacteria. Particulars: for minimum inhibitory concentration (MIC): Gram negative; for MIC: ATCC10536, Gram negative, read-out: minimum inhibitory concentration (MIC). As to the method:
as §1, with “As control drugs for the antibacterial agent, ampicillin (AMPC), clarithromycin (CAM), and gentamycin (GEM) were used.” left out
as §2

Experiment [13] concerns Mycobacterium ranae (ATCC 110). The experiment is described as follows: Antibacterial test (MIC), comparison bacteria. The settings on record: for minimum inhibitory concentration (MIC): Gram positive; for MIC: ATCC110, Gram positive, read-out: minimum inhibitory concentration (MIC). As to the method: as §1, with “As control drugs for the antibacterial agent, ampicillin (AMPC), clarithromycin (CAM), and gentamycin (GEM) were used.” left out
as §2

For Gentamycin [GEM, reference compound], the “MIC against Gram negative or Gram positive bacteria” value in experiment [1] was 0.1 to 1.0 µg/mL. Besides, the “minimum inhibitory concentration (MIC)” value in [2] amounted to 0.3 µg/mL; in experiment [3] it was 1.0 µg/mL; in experiment [4], 0.1 µg/mL; in experiment [5] it was 100 µg/mL; in experiment [6], 1.0 µg/mL; in experiment [7], 1.0 µg/mL. Also, the “minimum inhibitory concentration (MIC)” value came out at 0.3 µg/mL in [8]; 1.0 µg/mL in experiment [9]; 3.0 µg/mL in experiment [10]; 100 µg/mL in [11]; 0.3 µg/mL in [12]; 0.3 µg/mL in experiment [13]. Also, the “MIC against Helicobacter pylori” value in [2] (control drug) is 0.3 µg/mL.
With `CCCCCSc1ccnc(SCc2nc3ccccc3[nH]2)c1C` [Example 7, 2-[[(4-thiopentyl-3-methyl-2-pyridyl)thio]-methyl]-1H-benzimidazole], the “minimum inhibitory concentration (MIC)” value in experiment [2] was 0.3 µg/mL (≈ 0.839 µM); in experiment [3] it was 100< μg/ml; in experiment [4], 100< μg/ml; in experiment [5], 100< μg/ml; in experiment [6], 100< μg/ml; in experiment [7] it was 100< μg/ml. Also, the “minimum inhibitory concentration (MIC)” value in [8], in experiment [9], in experiment [10], in experiment [11], in [12] and in experiment [13] was 100< μg/ml each time.
Take `COCCOCCOc1ccnc(SCc2nc3ccccc3[nH]2)c1C.Cl` [Example 12, 2-[[[4-[2-(2-methoxyethoxy)-ethoxy]-3-methyl-2-pyridyl]thio]-methyl]-1H-benzimidazole hydrochloride]: the MIC is 0.3 µg/mL in [2]; above 100 µg/mL in experiment [3]; above 100 µg/mL in experiment [4]; above 100 µg/mL in [5]; above 100 µg/mL in experiment [6]; above 100 µg/mL in experiment [7]. Besides, the MIC in experiment [8], in experiment [9], in experiment [10], in experiment [11], in experiment [12] and in experiment [13] was above 100 µg/mL in each case.
On to `Cc1c(OCCOCCOCC(F)(F)F)ccnc1SCc1nc2ccccc2[nH]1.Cl` [Example 9], for which the “minimum inhibitory concentration (MIC)” value was 0.3 µg/mL in experiment [2]; 100< μg/ml in experiment [3]; 100< μg/ml in experiment [4]; 100< μg/ml in [5]; 100< μg/ml in [6]; 100< μg/ml in experiment [7]. Further, the “minimum inhibitory concentration (MIC)” value in experiment [8], in experiment [9], in experiment [10], in [11], in experiment [12] and in experiment [13] was 100< μg/ml each time.
For the compound `Cc1c(SCCOCCOCC(F)(F)F)ccnc1SCc1nc2ccccc2[nH]1.Cl` [Example 8], the “minimum inhibitory concentration (MIC)” value in experiment [2] was 0.1 µg/mL; in experiment [3] it was 100< μg/ml; in experiment [4], 100< μg/ml; in experiment [5] it was 100< μg/ml; in experiment [6] it was 100< μg/ml; in experiment [7], 100< μg/ml. Further, the “minimum inhibitory concentration (MIC)” value in experiment [8], in experiment [9], in experiment [10], in experiment [11], in experiment [12] and in [13] was 100< μg/ml throughout.
`COCCCCSc1ccnc(SCc2nc3ccccc3[nH]2)c1C.Cl` [Example 1, 2-[[[4-[(4-methoxy-butyl]thio]-3-methyl-2-pyridyl]thio]methyl]-1H-benzimidazole hydrochloride]: the MIC is at most 0.03 µg/mL in experiment [2]; above 100 µg/mL in experiment [3]; above 100 µg/mL in experiment [4]; above 100 µg/mL in experiment [5]; above 100 µg/mL in experiment [6]; above 100 µg/mL in experiment [7]. The MIC in experiment [8], in [9], in experiment [10], in experiment [11], in experiment [12] and in experiment [13] was above 100 µg/mL each time.
As for `CSc1ccnc(SCc2nc3ccccc3[nH]2)c1C.Cl` [Example 5, 2-[[(4-thiomethyl-3-methyl-2-pyridyl)thio]-methyl]-1H-benzimidazole hydrochloride], the “minimum inhibitory concentration (MIC)” value is 3.0 µg/mL in experiment [2]; 100< μg/ml in [3]; 100< μg/ml in experiment [4]; 100< μg/ml in experiment [5]; 100< μg/ml in [6]; 100< μg/ml in experiment [7]. In addition, the “minimum inhibitory concentration (MIC)” value in [8], in experiment [9], in experiment [10], in [11], in experiment [12] and in experiment [13] was 100< μg/ml throughout.

(Values after patent US20120041030A1, “PYRIDINE THIO DERIVATIVE, AND PHARMACEUTICAL COMPOSITION WHICH CONTAINS SAME AND HAS ANTI-HELICOBACTER PYLORI ACTION” (priority 2009, published 2012).)
